ChEMBL document CHEMBL1201862, “PubChem BioAssay data set” (2004)
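Where inhibition never reached the appropriate level, the endpoint shown equals the highest concentration tested. Otherwise, values were interpolated linearly from a five-concentration, 48-hour dose response in 96-well plates. GI50 = concentration required for 50% inhibition of growth.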 The source made the active and inactive calls. Rule as the data show it: active = GI50 up to about 1.1 µM and inactive = higher.

What was measured:
Experiment in all cases: inhibition of tumour cell growth, NCI panel, 48 h
[1] = system: 786-0
[2] = system: A498
[3] = system: A549
[4] = system: ACHN
[5] = system: CAKI-1
[6] = system: EKVX
[7] = system: HOP-92
[8] = system: HT-29
[9] = system: K562
[10] = system: KM12
[11] = system: Malme-3M
[12] = system: RPMI-8226
[13] = system: SK-MEL-5
[14] = system: SNB-19
[15] = system: SNB-75
[16] = system: UACC-62
[17] = system: LOX IMVI

Measured: GI50

Cc1nc2cc3nc4ccccc4c(O)c3cc2s1
inactive: [1] > 100 µM | [2] > 100 µM | [3] > 100 µM | [4] > 100 µM | [5] > 100 µM | [6] > 100 µM | [7] > 100 µM | [8] > 100 µM | [9] > 100 µM | [10] > 100 µM | [11] > 100 µM | [12] > 100 µM | [13] > 100 µM | [14] > 100 µM | [15] > 100 µM | [16] > 100 µM

CC(=O)/C(=C\C1=CCCO1)C(=O)Nc1ccccc1C
inactive: [1] > 100 µM | [3] > 100 µM | [4] > 100 µM | [5] > 100 µM | [6] > 100 µM | [7] > 100 µM | [8] > 100 µM | [9] > 100 µM | [10] > 100 µM | [17] > 100 µM | [11] > 100 µM | [12] > 100 µM | [13] > 100 µM | [14] > 100 µM | [16] > 100 µM

Cc1c2n(c3ccccc13)CC1C2N(C)OC1(C)C (configuration not stated)
inactive: [1] > 100 µM | [3] > 100 µM | [4] > 100 µM | [5] > 100 µM | [6] > 100 µM | [8] > 100 µM | [9] > 100 µM | [10] > 100 µM | [11] > 100 µM | [12] > 100 µM | [13] > 100 µM | [14] > 100 µM | [15] 81.5 µM | [16] > 100 µM

COC(=O)N/N=C(\C)CC(=O)Nc1cccc([N+](=O)[O-])c1
inactive: [1] > 100 µM | [3] > 100 µM | [6] > 100 µM | [7] > 100 µM | [8] > 100 µM | [9] > 100 µM | [10] > 100 µM | [17] > 100 µM | [11] > 100 µM | [12] > 100 µM | [13] > 100 µM | [15] > 100 µM | [16] > 100 µM

CCOC(=O)C(=O)Nc1c(C(C)C)cccc1C(C)C
inactive: [1] > 100 µM | [2] > 100 µM | [3] > 100 µM | [4] > 100 µM | [5] > 100 µM | [6] > 100 µM | [7] > 100 µM | [8] > 100 µM | [10] > 100 µM | [11] > 100 µM | [13] > 100 µM | [14] > 100 µM | [15] > 100 µM | [16] > 100 µM

CCC1C(=O)OCc2c1cc1n(c2=O)CCC12OCCO2 (configuration not stated)
inactive: [1] > 100 µM | [2] > 100 µM | [3] > 100 µM | [4] > 100 µM | [5] > 100 µM | [6] > 100 µM | [7] > 100 µM | [8] > 100 µM | [9] > 100 µM | [10] > 100 µM | [17] > 100 µM | [12] > 100 µM | [13] > 100 µM | [14] > 100 µM | [15] > 100 µM | [16] > 100 µM

COC(=O)C(CC(=O)Nc1ccc(C)cc1)C(=O)C(=O)Nc1c(C(C)C)cccc1C(C)C (configuration not stated)
inactive: [1] > 100 µM | [2] > 100 µM | [3] > 100 µM | [4] > 100 µM | [5] > 100 µM | [6] > 100 µM | [7] > 100 µM | [9] > 100 µM | [17] > 100 µM | [11] > 100 µM | [12] > 100 µM | [14] > 100 µM | [15] 97.7 µM | [16] 55.2 µM

Cc1ccc(S(=O)(=O)C2c3nc4ccccc4cc3-c3nc4ccccc4nc32)cc1 (configuration not stated)
inactive: [1] > 100 µM | [2] > 100 µM | [3] > 100 µM | [4] > 100 µM | [5] > 100 µM | [6] > 100 µM | [7] > 100 µM | [9] > 100 µM | [10] > 100 µM | [17] > 100 µM | [11] > 100 µM | [12] > 100 µM | [13] 51.8 µM | [14] > 100 µM | [15] 53.8 µM | [16] > 100 µM

O=[N+]([O-])c1ccc(NSc2ccccc2)cc1
inactive: [1] 16.4 µM | [2] 2.37 µM | [3] 29 µM | [4] 33.2 µM | [6] 30 µM | [7] 28.7 µM | [9] 23.6 µM | [10] 27.8 µM | [17] 13.1 µM | [11] > 100 µM | [12] > 10 µM | [13] 31.8 µM | [14] 70.3 µM | [16] 20.1 µM

O=S1(=O)CSc2ccc3ccccc3c2-c2c1ccc1ccccc21
inactive: [1] > 100 µM | [3] > 100 µM | [4] > 100 µM | [5] > 100 µM | [7] > 100 µM | [8] > 100 µM | [9] > 100 µM | [10] > 100 µM | [17] > 100 µM | [11] > 100 µM | [13] > 100 µM | [14] > 100 µM | [15] > 100 µM | [16] > 100 µM

COc1ccc(CCn2c(=O)c3ccccc3n(C)c2=O)cc1
inactive: [1] 67.1 µM | [2] 62.2 µM | [3] 50.9 µM | [4] > 100 µM | [5] 38.5 µM | [6] 60.4 µM | [8] 23.3 µM | [9] 4.21 µM | [10] 8.77 µM | [11] 48 µM | [12] 39 µM | [13] 31 µM | [14] > 100 µM | [15] 25.9 µM | [16] 24.2 µM

COc1cc(C(N)=O)c(OC)c(OC)c1OC
inactive: [1] > 100 µM | [2] > 100 µM | [3] > 100 µM | [4] > 100 µM | [6] > 100 µM | [7] > 100 µM | [8] > 100 µM | [9] > 100 µM | [10] > 100 µM | [17] > 100 µM | [12] > 100 µM | [13] > 100 µM | [14] > 100 µM | [15] 69.8 µM | [16] > 100 µM

NC(=S)N/N=C1\C(=O)N(c2cccc([N+](=O)[O-])c2)C(=O)C1C(=O)Nc1cccc([N+](=O)[O-])c1 (configuration not stated)
inactive: [1] > 100 µM | [2] > 100 µM | [3] > 100 µM | [4] > 100 µM | [5] > 100 µM | [6] > 100 µM | [7] > 100 µM | [8] > 100 µM | [9] > 100 µM | [17] > 100 µM | [11] > 100 µM | [12] > 100 µM | [13] > 100 µM | [14] > 100 µM | [15] > 100 µM | [16] > 100 µM

Nc1c(S(=O)(=O)c2ccc(Cl)cc2)c2nc3ccccc3nc2n2ccnc12
inactive: [1] 36.2 µM | [3] 85.9 µM | [4] 40.3 µM | [6] 93.8 µM | [7] > 100 µM | [8] > 100 µM | [9] > 100 µM | [10] > 100 µM | [11] > 100 µM | [12] > 100 µM | [13] > 100 µM | [14] 48.5 µM | [15] 31.6 µM

CN(C)CC1CCCC/C1=N/O (configuration not stated)
inactive: [1] > 100 µM | [2] > 100 µM | [3] > 100 µM | [4] > 100 µM | [5] > 100 µM | [6] > 100 µM | [7] > 100 µM | [8] > 100 µM | [9] > 100 µM | [10] > 100 µM | [17] > 100 µM | [11] > 100 µM | [12] > 100 µM | [13] > 100 µM | [15] > 100 µM | [16] > 100 µM

CN1CCn2c(Br)ccc2C1=O
inactive: [1] > 100 µM | [2] > 100 µM | [3] > 100 µM | [4] > 100 µM | [5] > 100 µM | [6] > 100 µM | [8] > 100 µM | [9] > 100 µM | [10] > 100 µM | [17] > 100 µM | [11] > 100 µM | [12] > 100 µM | [14] > 100 µM | [16] > 100 µM

[O-][S+]1c2ccccc2N=C(c2ccc3ccccc3c2)CC1c1ccccc1F (configuration not stated)
inactive: [1] > 100 µM | [2] 22.3 µM | [3] > 100 µM | [4] > 100 µM | [5] > 100 µM | [6] > 100 µM | [8] > 100 µM | [9] 78.2 µM | [10] > 100 µM | [17] > 100 µM | [11] > 100 µM | [12] 58.6 µM | [13] > 100 µM | [14] > 100 µM | [15] 20.5 µM | [16] > 100 µM

O=C(Cc1nc2ccccc2c(=O)n1-c1ccccc1Cl)c1ccncc1
inactive: [1] > 100 µM | [2] > 100 µM | [3] > 100 µM | [4] > 100 µM | [5] > 100 µM | [6] > 100 µM | [7] > 100 µM | [8] > 100 µM | [9] > 100 µM | [10] > 100 µM | [17] > 100 µM | [11] > 100 µM | [13] > 100 µM | [14] > 100 µM | [15] 15 µM | [16] > 100 µM
